In ChEMBL document CHEMBL1145615, “A refined pharmacophore model for HIV-1 integrase inhibitors: Optimization of potency in the 1H-benzylindole series” (Bioorg Med Chem Lett, 2008):

How the values were obtained:
[1] = tested on: Human immunodeficiency virus 1; assay: Antiviral activity against HIV1 3B assessed as inhibition of viral-induced cytopathic effect in human MT4 cells; format: functional, organism-based; conditions: Human immunodeficiency virus 1, 3B
[2] = Cytotoxicity against human MT4 cells; format: cell-based
[3] = Selectivity index, ratio of CC50 for human MT4 cells to EC50 for HIV1 3B; format: functional
[4] = target: T1, Human immunodeficiency virus type 1 integrase (Human immunodeficiency virus 1, UniProt Q7ZJM1)
T1 sequence (Q7ZJM1 whole entry): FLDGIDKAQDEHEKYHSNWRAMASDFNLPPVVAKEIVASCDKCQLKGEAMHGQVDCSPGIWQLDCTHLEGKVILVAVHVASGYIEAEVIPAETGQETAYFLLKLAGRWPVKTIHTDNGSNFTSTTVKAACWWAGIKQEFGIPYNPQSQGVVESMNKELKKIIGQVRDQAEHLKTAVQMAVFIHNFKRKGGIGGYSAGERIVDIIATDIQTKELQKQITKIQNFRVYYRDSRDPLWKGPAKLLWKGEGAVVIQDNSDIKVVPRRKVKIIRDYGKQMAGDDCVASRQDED
Description: Inhibition of HIV1 integrase

[5] = target: T1, Human immunodeficiency virus type 1 integrase; remark: listed apart in the source
Description: Inhibition of HIV1 integrase strand transfer activity

Row | Compound | EC50 [1] | CC50 [2] | Ratio CC50/EC50 [3] | IC50 [4] | IC50 [5]
1 | COc1cc2c(cc1Cc1cccc(Cl)c1F)c(=O)c(C(=O)O)cn2[C@H](CO)C(C)C | 0.0008 µM | 2.12 µM | – | – | –
2 | Cc1nnc(C(=O)NC(C)(C)c2nc(C(=O)NCc3ccc(F)cc3)c(O)c(=O)n2C)o1 | 0.013 µM | > 18 µM | – | – | –
3 | COc1cccc2c1c(C(=O)/C=C(\O)C(=O)O)cn2Cc1ccc(F)cc1 | – | 41.1 µM | 70 | 0.08 µM | 0.14 µM
4 | O=C(O)/C(O)=C/C(=O)c1cn(Cc2ccc(F)cc2)c2ccccc12 | 8.35 µM | 64.1 µM | 8 | 0.86 µM | 2.33 µM
5 | COc1ccc(OC)c2c1c(C(=O)/C=C(\O)C(=O)O)cn2Cc1ccc(F)cc1 | 2.13 µM | 213 µM | 100 | 0.06 µM | 0.03 µM
6 | CCOC(=O)/C(O)=C/C(=O)c1cn(Cc2ccc(F)cc2)c2c(OC)ccc(OC)c12 | 4.09 µM | 81.1 µM | 20 | 1.24 µM | 0.66 µM
7 | CCOC(=O)/C(O)=C/C(=O)c1cn(Cc2ccc(F)cc2)c2cc(OC)ccc12 | > 100 µM | 100 µM | <1 | 1.96 µM | 2.34 µM
8 | COc1ccc2c(C(=O)/C=C(\O)C(=O)O)cn(Cc3ccc(F)cc3)c2c1 | 8.39 µM | 66 µM | 8 | 0.19 µM | 0.22 µM
9 | COc1cccc2c(C(=O)/C=C(\O)C(=O)O)cn(Cc3ccc(F)cc3)c12 | 7.04 µM | 82.9 µM | 12 | 0.27 µM | 0.19 µM
10 | CCOC(=O)/C(O)=C/C(=O)c1cn(Cc2ccc(F)cc2)c2cccc(OC)c12 | 3.17 µM | 74 µM | 24 | 86.1 µM | 92.3 µM
11 | CCOC(=O)/C(O)=C/C(=O)c1cn(Cc2ccc(F)cc2)c2c(OC)cccc12 | > 100 µM | > 100 µM | – | 4.76 µM | 2.64 µM
12 | CCOC(=O)/C(O)=C/C(=O)c1cn(Cc2ccc(F)cc2)c2ccc(OC)cc12 | 11.5 µM | 126 µM | 11 | 4.6 µM | 7.55 µM
13 | COc1ccc2c(c1)c(C(=O)/C=C(\O)C(=O)O)cn2Cc1ccc(F)cc1 | 5.63 µM | 63.6 µM | 12 | 0.3 µM | 0.27 µM
